Each structure is given as a SMILES string. Some results are limits rather than exact numbers.

One data set has as its target T1, Cytochrome P450 1A1 (Homo sapiens, UniProt P04798).
T1 sequence (P04798 whole entry): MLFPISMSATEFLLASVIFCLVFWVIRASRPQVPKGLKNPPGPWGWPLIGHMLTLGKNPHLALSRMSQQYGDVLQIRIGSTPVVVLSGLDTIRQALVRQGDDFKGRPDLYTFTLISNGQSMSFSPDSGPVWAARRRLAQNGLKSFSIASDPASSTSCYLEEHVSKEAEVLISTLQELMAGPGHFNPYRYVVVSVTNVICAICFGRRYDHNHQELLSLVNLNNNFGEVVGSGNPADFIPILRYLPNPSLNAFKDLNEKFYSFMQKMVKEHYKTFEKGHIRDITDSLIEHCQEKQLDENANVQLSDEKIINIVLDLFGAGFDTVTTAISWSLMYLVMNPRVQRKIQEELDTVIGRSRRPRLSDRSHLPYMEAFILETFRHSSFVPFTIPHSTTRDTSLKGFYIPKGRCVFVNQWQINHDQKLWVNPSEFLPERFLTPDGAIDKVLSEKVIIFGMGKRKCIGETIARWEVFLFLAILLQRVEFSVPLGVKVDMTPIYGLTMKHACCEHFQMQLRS
As to the kind of experiment: Inhibition of human recombinant CYP1A1 assessed as fluorescence of resorufin. Format: ADME.

The target of data set [1] is T2, Cytochrome P450 1B1 (Homo sapiens, UniProt Q16678).
T2 sequence (Q16678 whole entry): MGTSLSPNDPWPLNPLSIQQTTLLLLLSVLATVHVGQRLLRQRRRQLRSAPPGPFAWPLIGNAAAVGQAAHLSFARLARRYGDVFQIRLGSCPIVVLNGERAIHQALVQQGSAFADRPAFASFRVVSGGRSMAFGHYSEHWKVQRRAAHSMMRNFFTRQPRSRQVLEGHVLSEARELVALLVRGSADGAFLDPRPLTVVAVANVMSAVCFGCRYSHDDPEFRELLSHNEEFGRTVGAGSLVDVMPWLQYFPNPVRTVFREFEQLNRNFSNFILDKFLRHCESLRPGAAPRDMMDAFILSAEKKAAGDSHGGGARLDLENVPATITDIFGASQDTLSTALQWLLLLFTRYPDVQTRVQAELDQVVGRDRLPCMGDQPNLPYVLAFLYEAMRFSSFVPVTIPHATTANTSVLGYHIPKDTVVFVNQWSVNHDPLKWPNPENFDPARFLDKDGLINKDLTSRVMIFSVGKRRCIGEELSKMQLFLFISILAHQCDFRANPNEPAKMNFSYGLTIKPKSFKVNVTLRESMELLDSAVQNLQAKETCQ
As to the kind of experiment: Inhibition of human CYP1B1 overexpressed in CHO cells assessed as intracellular protein inhibition measured at 10 to 100 uM after 3 hrs. In kind it is cell-based. The following applies: dose 10-100 µM.

The target in data set [2] is T2, Cytochrome P450 1B1. As to the kind of experiment: Inhibition of human recombinant CYP1B1 assessed as fluorescence of resorufin.
A further data set concerns the target T3, Cytochrome P450 1A2 (Homo sapiens, UniProt P05177).
T3 sequence (P05177 whole entry): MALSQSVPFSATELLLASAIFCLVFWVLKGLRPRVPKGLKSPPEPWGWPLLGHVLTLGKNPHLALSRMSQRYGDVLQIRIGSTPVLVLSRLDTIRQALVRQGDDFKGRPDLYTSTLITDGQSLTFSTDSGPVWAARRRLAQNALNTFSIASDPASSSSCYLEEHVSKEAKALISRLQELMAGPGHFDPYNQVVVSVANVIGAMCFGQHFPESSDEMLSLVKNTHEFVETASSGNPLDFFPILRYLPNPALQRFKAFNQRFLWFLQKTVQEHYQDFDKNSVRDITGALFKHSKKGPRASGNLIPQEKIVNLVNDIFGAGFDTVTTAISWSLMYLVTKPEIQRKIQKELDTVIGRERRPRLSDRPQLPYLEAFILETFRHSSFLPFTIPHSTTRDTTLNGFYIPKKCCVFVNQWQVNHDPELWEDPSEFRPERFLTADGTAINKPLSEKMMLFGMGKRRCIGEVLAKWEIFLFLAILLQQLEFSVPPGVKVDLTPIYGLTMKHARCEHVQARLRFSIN
As to the kind of experiment: Inhibition of human recombinant CYP1A2 assessed as fluorescence of resorufin. In kind it is ADME.

For data set [3], the target named is T4, Aryl hydrocarbon receptor (Homo sapiens, UniProt P35869).
T4 sequence (P35869 whole entry): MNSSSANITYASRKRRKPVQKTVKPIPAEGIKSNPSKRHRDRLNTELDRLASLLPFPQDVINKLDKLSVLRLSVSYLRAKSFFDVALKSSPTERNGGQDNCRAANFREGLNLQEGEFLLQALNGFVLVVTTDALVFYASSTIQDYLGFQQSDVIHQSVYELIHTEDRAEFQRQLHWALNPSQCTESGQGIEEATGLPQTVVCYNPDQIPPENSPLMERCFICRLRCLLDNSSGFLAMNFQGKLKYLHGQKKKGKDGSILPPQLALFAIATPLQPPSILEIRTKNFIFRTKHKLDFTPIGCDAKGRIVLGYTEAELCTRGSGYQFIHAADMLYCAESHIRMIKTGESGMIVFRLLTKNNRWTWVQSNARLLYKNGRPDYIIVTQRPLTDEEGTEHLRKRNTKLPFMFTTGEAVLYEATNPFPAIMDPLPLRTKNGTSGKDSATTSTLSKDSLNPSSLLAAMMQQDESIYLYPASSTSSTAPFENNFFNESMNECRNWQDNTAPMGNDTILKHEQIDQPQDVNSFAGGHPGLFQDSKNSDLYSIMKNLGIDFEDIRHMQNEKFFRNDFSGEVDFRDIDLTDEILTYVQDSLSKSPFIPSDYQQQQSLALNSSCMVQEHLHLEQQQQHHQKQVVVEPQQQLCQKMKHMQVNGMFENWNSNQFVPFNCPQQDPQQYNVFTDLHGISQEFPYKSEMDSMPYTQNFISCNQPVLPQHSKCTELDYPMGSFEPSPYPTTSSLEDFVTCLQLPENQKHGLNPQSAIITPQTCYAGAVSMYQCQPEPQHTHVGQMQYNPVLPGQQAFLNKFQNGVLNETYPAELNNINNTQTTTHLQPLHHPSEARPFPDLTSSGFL
As to the kind of experiment: Agonist activity at aryl hydrocarbon receptor (unknown origin) expressed in HEK293T cells assessed as luciferase activity at 10 uM measured after 24 hrs. In kind it is toxicity, cell-based.

In data set [4] the target is T4, Aryl hydrocarbon receptor. As to the kind of experiment: Antagonist activity at aryl hydrocarbon receptor (unknown origin) expressed in HEK293T cells assessed as luciferase activity at 10 uM measured after 24 hrs. In kind it is toxicity, cell-based.
Data set [5] is described as follows: Metabolic stability in human liver microsomes assessed as half life measured after 60 mins by LC-UV analysis. Format: ADME, Microsome. In general terms: Microsomes from liver hold many membrane-bound enzymes, among them those of drug oxidation.
The nature of data set [6]: Metabolic stability in human liver microsomes assessed as relative remaining concentration measured after 60 mins by LC-UV analysis. In kind it is ADME, Microsome. The note with it: read-out: INH.

One may read the IC50 as the concentration needed to halve the response being measured. For `O=c1cc(-c2ccccc2)oc2c1ccc1ccccc12` [ALPHA-NAPHTHOFLAVONE], the IC50 at Cytochrome P450 1A1 came to 0.00741 µM. The “inhibition (INH)” value at Cytochrome P450 1B1 [1] is on record as “Dose-Dependent Effect”.
`Nc1ccc(C(=O)/C=C/c2ccccc2)cc1`: the IC50 on Cytochrome P450 1B1 [2] is 1.06 µM.
Consider `COc1cc(OC)c(/C=C/C(=O)c2ccc(C(F)(F)F)cc2)cc1Br`, for which the IC50 on Cytochrome P450 1A2 was above 100 µM.
`Cc1ccc(/C=C/C(=O)c2ccc(C(F)(F)F)cc2)c(C)c1`: the IC50 on Cytochrome P450 1A2 is above 100 µM.
For `COc1cc(OC(C)=O)ccc1/C=C/C(=O)c1ccc(C(F)(F)F)cc1`, the IC50 at Cytochrome P450 1A2 is above 100 µM.
As for `CCOc1ccc(/C=C/C(=O)c2ccc(C(F)(F)F)cc2)c(OC)c1`, the IC50 at Cytochrome P450 1A2 is above 100 µM. Moreover, the result in data set [3] was Active.
Regarding `O=C(/C=C/c1ccc(F)cc1)c1ccc(C(F)(F)F)cc1`, the IC50 at Cytochrome P450 1A2 is above 100 µM.
For orientation: half-life means the time in which the quantity being followed falls by half. As to `COc1ccc(/C=C/C(=O)c2ccc(C(F)(F)F)cc2)c(OC)c1`, the values for the IC50 on Cytochrome P450 1A2, on Cytochrome P450 1A1 and on Cytochrome P450 1B1 [2] were above 100 µM, 1.69 µM and 0.00472 µM, respectively. Moreover, the outcome in data set [4] was Active. For the same compound, the half-life in data set [5] stood at 28.9 min. In addition, in data set [6], the remaining at 1 h amounted to 11.8%.
Turning to `O=C(/C=C/c1ccccc1)c1ccccc1` [CHALCONE], the IC50 at Cytochrome P450 1B1 [2] stood at 0.305 µM.
Regarding `CN(C)c1ccc(C(=O)/C=C/c2ccccc2)cc1`, at Cytochrome P450 1B1 [2], the IC50 was determined as 0.11 µM.
Turning to `O=C(/C=C/c1ccccc1)c1ccc(Br)cc1`, the IC50 at Cytochrome P450 1B1 [2] came to 0.036 µM.
As for `COc1ccc(/C=C/C(=O)c2ccc(C(F)(F)F)cc2)cc1`, the IC50 on Cytochrome P450 1A2 is above 100 µM.
As for `CCCOc1ccc(/C=C/C(=O)c2ccc(C(F)(F)F)cc2)cc1`, the IC50 on Cytochrome P450 1A2 is above 100 µM.
Same read-out and setting: the figure for `COc1cc(OC(=O)c2cccs2)ccc1/C=C/C(=O)c1ccc(C(F)(F)F)cc1` is above 100 µM; for `CCCOc1ccc(/C=C/C(=O)c2ccc(C(F)(F)F)cc2)c(OC)c1` it is above 100 µM.
Take `O=C(/C=C/c1ccccc1)c1ccc(Cl)cc1`: the IC50 on Cytochrome P450 1B1 [2] is 0.043 µM.
Consider `COc1cc(O)c(Br)cc1/C=C/C(=O)c1ccc(C(F)(F)F)cc1`, for which the concentration for half-maximal inhibition (IC50) on Cytochrome P450 1A2 is above 100 µM.
Take `C[C@]12CC[C@H]3[C@@H](CCC4=CC(=O)CC[C@@]43C)[C@@H]1CC[C@@H]2O` [TESTOSTERONE]: in data set [5], the half-life came out at 58.2 min. The remaining at 1 h in data set [6] was determined as 43.7%.
For `O=C(/C=C/c1ccc(O)cc1)c1ccc(C(F)(F)F)cc1`, the IC50 at Cytochrome P450 1A2 is above 100 µM.
Consider `O=C(/C=C/c1ccccc1)c1ccc(C(F)(F)F)cc1`, for which the IC50 on Cytochrome P450 1A2 was above 100 µM; at Cytochrome P450 1A1 it was 0.274 µM; at Cytochrome P450 1B1 [2], 0.0262 µM.
As for `COc1cc(O)c(Cl)cc1/C=C/C(=O)c1ccc(C(F)(F)F)cc1`, the IC50 on Cytochrome P450 1A2 is above 100 µM. Further, in data set [3], the outcome was Active.
Turning to `Cc1ccc(/C=C/C(=O)c2ccc(C(F)(F)F)cc2)cc1`, the IC50 on Cytochrome P450 1A2 is above 100 µM.
For the compound `Cc1ccc(C(=O)/C=C/c2ccccc2)cc1`, at Cytochrome P450 1B1 [2], the IC50 is 0.031 µM.
Turning to `COc1cc(O)ccc1/C=C/C(=O)c1ccc(C(F)(F)F)cc1`, on Cytochrome P450 1A2, the IC50 was above 100 µM. Moreover, the half-life in data set [5] was 35.6 min. Besides, the outcome in data set [3] was Active. Moreover, in data set [6], the remaining at 1 h was determined as 21%.
For `O=C(/C=C/c1ccccc1)c1ccc([N+](=O)[O-])cc1`, the IC50 at Cytochrome P450 1B1 [2] turned out to be 0.28 µM.
Turning to `CCOc1ccc(/C=C/C(=O)c2ccc(C(F)(F)F)cc2)cc1`, on Cytochrome P450 1A2, the IC50 was above 100 µM.
For `COc1ccc(C(=O)/C=C/c2ccccc2)cc1` [4'-METHOXYCHALCONE], the IC50 on Cytochrome P450 1B1 [2] is 0.18 µM.
Same read-out and setting: the figure for `O=C(/C=C/c1ccccc1)c1ccc(O)cc1` [4'-HYDROXYCHALCONE] is 1.13 µM.
As to `O=C(/C=C/c1ccc(F)cc1F)c1ccc(C(F)(F)F)cc1`, the IC50 at Cytochrome P450 1A2 is above 100 µM.

Source of the values: ChEMBL document CHEMBL5620387, “Discovery of 4'-trifluoromethylchalcones as novel, potent and selective hCYP1B1 inhibitors without concomitant AhR activation” (Eur J Med Chem, 2023).
